Read-outs that look alike come from different tables or passages of the source.
Assays:
DBA/2 mice = experiment: Audiogenic seizure model; type: in vivo; conditions: Mus musculus, read-out: Seizure suppression
Procedure, shortened: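 Male and female DBA/2 mice (3 weeks old, 8/group) dosed orally at 30 mg/kg in 5% gum arabic; 1 h later exposed to 12.6 kHz, 100-110 dB tone for 1 min or until tonic seizure. Maximum seizure score (0–4) recorded; suppression rate graded A (≥90%), B (70–<90%), C (50–<70%).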

ICR mice = experiment: Rotarod test (motor coordination); type: in vivo, mouse; conditions: oral, rotarod 1 hour after administration
Procedure: This test is performed to evaluate the effect of the compound on the motor coordination. In this test example, the example compounds shown in Table 4 below were used as test compounds. Male ICR mice (Japan SLC, Inc., 5-6 weeks, 8 per group) were trained to remain on a fixed speed (15 rpm) rotating rod of rotarod apparatus (Muromachi Kikai Co., Ltd.) for 2 minutes. […] After 1 hour of oral administration, the mice were again placed on the rod accelerated from 4 rpm to 40 rpm over 5 minutes and the latency to fall off the rod was recorded for 200 seconds. The falling latency of the compound administration group was calculated as a relative value relative to the average value of the falling latency in the solvent administration group. Here, a coordination disorder of 25% or less was expressed as “A”, and a coordination disorder of more than 25% and 50% or less was expressed as “B”.

[1] = DBA/2 mice, oral, auditory stimulation 1 hour after administration
[2] = DBA/2 mice, oral, dose 30 mg/kg, auditory stimulation 1 hour after administration

| Structure (SMILES) | inhibition in vivo at 5 mg/kg (DBA/2 mice; [1]) [%] | Motor dysfunction (ICR mice; dose 5 mg/kg) | inhibition in vivo at 30 mg/kg (DBA/2 mice; [2]) [%] | Motor dysfunction (ICR mice; dose 30 mg/kg) | further results |
| --- | --- | --- | --- | --- | --- |
| c1ccc(Oc2ncc(-c3cccnc3)cn2)cc1 [Example 7, 2-Phenoxy-5-(Pyridin-3-Yl)Pyrimidine] | > 90 | A (a coordination disorder of 25% or less) |  |  |  |
| Nc1nc2ccc(-c3cnc(Oc4ccccc4)nc3)cn2n1 [Example 298] |  |  |  |  | inhibition in vivo at 1 mg/kg (DBA/2 mice; [1]): > 90%; Motor dysfunction (ICR mice; dose 1 mg/kg): A (a coordination disorder of 25% or less) |
| O=C1CCC(c2cnc(Oc3ccc(F)cc3)nc2)=NN1 [Example 98] |  |  |  |  | inhibition in vivo at 3 mg/kg (DBA/2 mice; [1]): > 90%; Motor dysfunction (ICR mice; dose 3 mg/kg): A (a coordination disorder of 25% or less) |
| COc1ccc(-c2cnc(Oc3ccc(F)cc3)nc2)nn1 [Example 5] | > 90 | A (a coordination disorder of 25% or less) |  |  |  |
| O=C1CCN(c2ccc(Oc3ccccc3)nn2)C(=O)N1 [Example 347, 1-(6-Phenoxypyridazin-3-Yl)Dihydropyrimidine-2,4 (1H,3H)-Dione] |  |  | > 90 | A (a coordination disorder of 25% or less) |  |
| O=c1ccc(-c2cnc(Oc3ccccc3F)nc2)n[nH]1 [Example 95] |  |  |  |  | inhibition in vivo at 3 mg/kg (DBA/2 mice; [1]): > 90%; Motor dysfunction (ICR mice; dose 10 mg/kg): A (a coordination disorder of 25% or less) |
| N#Cc1cc(-c2cnc(Oc3ccccc3)nc2)ccn1 [Example 348] |  |  |  |  | inhibition in vivo at 1 mg/kg (DBA/2 mice; [1]): > 90%; Motor dysfunction (ICR mice; dose 1 mg/kg): A (a coordination disorder of 25% or less) |
| Cc1cc(-c2cnc(Oc3ccccc3)nc2)ccn1 [Example 22] | > 90 | A (a coordination disorder of 25% or less) |  |  |  |
| Cc1c(-c2cnc(Oc3ccccc3)nc2)ccc2nccn12.Cl [Example 198, 5-Methyl-6-(2-Phenoxypyrimidin-5-Yl) Imidazo[1,2-a]Pyridine Hydrochloride] | > 90 | A (a coordination disorder of 25% or less) |  |  |  |
| FC(F)(F)c1cc(-c2cnc(Oc3ccccc3)nc2)ccn1 [Example 299] | > 90 | A (a coordination disorder of 25% or less) |  |  |  |
| c1ccc(Oc2ncc(-c3cn4ccnc4cn3)cn2)cc1 [Example 148] |  |  | > 90 | A (a coordination disorder of 25% or less) |  |
| O=C1Cc2cc(-c3cnc(Oc4ccccc4)nc3)ccc2N1 [Example 259] | > 90 | A (a coordination disorder of 25% or less) |  |  |  |
| N#Cc1cccc(-c2cnc(Oc3ccccc3)nc2)c1 [Example 237] |  |  | > 90 | A (a coordination disorder of 25% or less) |  |
| O=C1CCN(c2ccc(Cc3ccccc3)cc2)C(=O)N1 [Example 304] |  |  | > 90 | A (a coordination disorder of 25% or less) |  |
| c1ccc(Oc2ncc(-c3ccnc4ccccc34)cn2)cc1 [Example 118, 4-(2-Phenoxypyrimidin-5-Yl) Quinoline] | 70 to 90 | A (a coordination disorder of 25% or less) |  |  |  |
| Cc1cc(Oc2ccccc2)ccc1N1CCC(=O)NC1=O [Example 323] |  |  |  | B (a coordination disorder of more than 25% and 50% or less) | inhibition in vivo at 39 mg/kg (DBA/2 mice; DBA/2 mice, oral, dose 39 mg/kg, auditory stimulation 1 hour after administration): 70 to 90% |
| FC(F)(F)Oc1cccc(Oc2ncc(-c3ccc4nccn4c3)cn2)c1 [Example 171] | > 90 | A (a coordination disorder of 25% or less) |  |  |  |
| Nc1ccc(-c2cnc(Oc3cccnc3)nc2)cn1 [Example 90] | 70 to 90 | A (a coordination disorder of 25% or less) |  |  |  |
| O=c1ccc(-c2cnc(Oc3ccccc3)nc2)c[nH]1 [Example 103] |  |  | > 90 | A (a coordination disorder of 25% or less) |  |
| N#Cc1ccc(-c2cnc(Oc3ccccc3)nc2)cn1 [Example 297] |  |  |  |  | inhibition in vivo at 1 mg/kg (DBA/2 mice; [1]): > 90%; Motor dysfunction (ICR mice; dose 1 mg/kg): A (a coordination disorder of 25% or less) |
| c1ccc(Oc2ncc(-c3ccn4cnnc4c3)cn2)cc1 [Example 211] |  |  | > 90 | B (a coordination disorder of more than 25% and 50% or less) |  |
| Nc1cc(-c2cnc(Oc3ccccc3)nc2)ccn1 [Example 55] |  |  |  | A (a coordination disorder of 25% or less) | inhibition in vivo at 30 mg/kg (DBA/2 mice; po, 1 h): > 90% |

| Structure (SMILES) | inhibition in vivo at 5 mg/kg (DBA/2 mice; [1]) [%] | Motor dysfunction (ICR mice; dose 5 mg/kg) | inhibition in vivo at 30 mg/kg (DBA/2 mice; [2]) [%] | Motor dysfunction (ICR mice; dose 30 mg/kg) | further results |
| --- | --- | --- | --- | --- | --- |
| Nc1ccc(-c2cnc(Oc3ccccc3)nc2)c(N)n1 [Example 66] |  |  | > 90 | A (a coordination disorder of 25% or less) |  |
| O=c1cnc2cc(-c3cnc(Oc4ccccc4)nc3)ccc2[nH]1 [Example 256] | 70 to 90 | A (a coordination disorder of 25% or less) |  |  |  |
| O=C1CCC(c2cnc(Oc3ccccc3)nc2)=NN1 [Example 92, 6-(2-Phenoxypyrimidin-5-Yl)-4,5-Dihydropyridazin-3 (2H)-One] | > 90 | A (a coordination disorder of 25% or less) |  |  |  |
| COc1ccc(-c2cnc(Oc3ccccc3)nc2)nn1 [Example 1, 3-Methoxy-6-(2-Phenoxypyrimidin-5-Yl)Pyridazine] | > 90 | A (a coordination disorder of 25% or less) |  |  |  |
| O=C1CCN(c2ccc(Oc3cccc(OC(F)F)c3)cc2)C(=O)N1 [Example 314, 1-{4-[3-(Difluoromethoxy) Phenoxy]Phenyl}Dihydropyrimidine-2,4 (1H,3H)-Dione] |  |  | > 90 | A (a coordination disorder of 25% or less) |  |
| c1ccc(Oc2ncc(-c3ccn4ccnc4c3)cn2)cc1 [Example 127] | > 90 | B (a coordination disorder of more than 25% and 50% or less) |  |  |  |
| Cc1ccc(-c2cnc(Oc3ccccc3)nc2)c(N)n1 [Example 64] |  |  |  |  | inhibition in vivo at 3 mg/kg (DBA/2 mice; [1]): > 90%; Motor dysfunction (ICR mice; dose 3 mg/kg): A (a coordination disorder of 25% or less) |
| c1ccc(Oc2ncc(-c3ccc4ncccc4n3)cn2)cc1 [Example 143] |  |  | > 90 | A (a coordination disorder of 25% or less) |  |
| O=c1[nH]cccc1-c1cnc(Oc2ccccc2)nc1 [Example 107] |  |  | > 90 | A (a coordination disorder of 25% or less) |  |
| O=c1ccc(-c2cnc(Oc3ccccc3)nc2)n[nH]1 [Example 91, 6-(2-Phenoxypyrimidin-5-Yl)Pyridazin-3 (2H)-One] | > 90 | A (a coordination disorder of 25% or less) |  |  |  |
| Cn1ncc2ccc(-c3cnc(Oc4ccccc4)nc3)nc21 [Example 275] |  |  | > 90 | A (a coordination disorder of 25% or less) |  |
| Cc1cc(Oc2cccc(OC(F)(F)F)c2)ccc1N1CCC(=O)NC1=O [Example 336] |  |  | 70 to 90 | A (a coordination disorder of 25% or less) |  |
| O=C1COCCN1c1cnc(Oc2ccccc2)nc1 [Example 229, 4-(2-Phenoxypyrimidin-5-Yl) Morpholin-3-One] |  |  | > 90 | A (a coordination disorder of 25% or less) |  |
| FC(F)(F)c1ccnc(-c2cnc(Oc3ccccc3)nc2)n1 [Example 300] |  |  | > 90 | A (a coordination disorder of 25% or less) |  |
| O=c1ccc(-c2cnc(Oc3cccc(F)c3)nc2)n[nH]1 [Example 93] |  |  | > 90 | A (a coordination disorder of 25% or less) |  |
| c1ccc(Oc2ncc(-c3ccc4nccn4n3)cn2)cc1 [Example 123, 6-(2-Phenoxypyrimidin-5-Yl) Imidazo[1,2-b]Pyridazine] | > 90 | A (a coordination disorder of 25% or less) |  |  |  |
| O=c1ccc(-c2cnc(Oc3cc(F)cc(F)c3)nc2)n[nH]1 [Example 102] |  |  |  |  | inhibition in vivo at 10 mg/kg (DBA/2 mice; [1]): > 90%; Motor dysfunction (ICR mice; dose 10 mg/kg): A (a coordination disorder of 25% or less) |
| c1ccc(Oc2ncc(-c3ccn4nccc4n3)cn2)cc1 [Example 134] | > 90 | B (a coordination disorder of more than 25% and 50% or less) |  |  |  |
| Cc1cnc2ccc(-c3cnc(Oc4ccccc4)nc3)cn12 [Example 190] | > 90 | A (a coordination disorder of 25% or less) |  |  |  |
| O=C1CCN(c2ccc(Cc3ccc(OC(F)(F)F)cc3)cc2)C(=O)N1 [Example 340] |  |  | 70 to 90 | A (a coordination disorder of 25% or less) |  |
| Clc1cccc(Oc2ncc(-c3ccc4nccn4c3)cn2)c1 [Example 163, 6-(2-(3-Chlorophenoxy)Pyrimidin-5-Yl) Imidazo[1,2-a]Pyridine] | > 90 | A (a coordination disorder of 25% or less) |  |  |  |
| O=c1ccc(-c2cnc(Oc3cccnc3)nc2)n[nH]1 [Example 113] |  |  |  |  | inhibition in vivo at 10 mg/kg (DBA/2 mice; [1]): > 90%; Motor dysfunction (ICR mice; dose 10 mg/kg): A (a coordination disorder of 25% or less) |
